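In this assay, cells in 96-well plates receive the compound at five concentrations for 48 hours. Endpoints are linearly interpolated between the surrounding concentrations. GI50 marks 50% less growth. TGI: concentration producing complete growth inhibition.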
Assays:
Assay in all cases: growth of human tumour cells (NCI), 48 h
[1] = test system: HCT-116 colon
[2] = test system: CCRF-CEM leukemia
[3] = test system: NCI-H23 lung
[4] = test system: KM12 colon
[5] = test system: SK-MEL-28 melanoma
[6] = test system: SW-620 colon
[7] = test system: UACC-62 melanoma
[8] = test system: TK-10 renal
[9] = test system: CAKI-1 renal
[10] = test system: 786-0 renal
[11] = test system: NCI-H522 lung
[12] = test system: LOX IMVI melanoma
[13] = test system: HOP-92 NSCLC
[14] = test system: SF-539 CNS
[15] = test system: A498 renal
[16] = test system: SNB-75 CNS
[17] = test system: HOP-62 NSCLC
[18] = test system: UACC-257 melanoma
[19] = test system: MDA-MB-231 breast
[20] = test system: HCC-2998 colon
[21] = test system: IGROV1 ovarian
[22] = test system: RPMI-8226 leukemia
[23] = test system: COLO 205 colon
[24] = test system: MOLT-4 leukemia
[25] = test system: EKVX NSCLC
[26] = test system: HT29 colon
[27] = test system: SK-MEL-2 melanoma
[28] = test system: NCI-H460 lung
[29] = test system: SR leukemia
[30] = test system: DU-145 prostate
[31] = test system: BT-549 breast
[32] = test system: U251 CNS
[33] = test system: UO-31 renal
[34] = test system: ACHN renal
[35] = test system: PC-3 prostate
[36] = test system: K-562 leukemia
[37] = test system: OVCAR-4 ovarian
[38] = test system: OVCAR-5 ovarian
[39] = test system: MCF7 breast
[40] = test system: OVCAR-3 ovarian
[41] = test system: SN12C renal
[42] = test system: A549 NSCLC
[43] = test system: SK-OV-3 ovarian
[44] = test system: MDA-MB-435
[45] = test system: NCI-H226 lung
[46] = test system: MDA-MB-468 breast
[47] = test system: SF-268 CNS
[48] = test system: SF-295 CNS
[49] = test system: MALME-3M melanoma
[50] = test system: HCT-15 colon
[51] = test system: M14 melanoma
[52] = test system: HS 578T breast
[53] = test system: T-47D breast
[54] = test system: OVCAR-8 ovarian
[55] = test system: SK-MEL-5 melanoma
[56] = test system: SNB-19 CNS
[57] = test system: RXF 393 renal
[58] = test system: HL-60(TB) leukemia

SMILES: C=C1CCC2C3(C)COC(c4c(F)cccc4F)OC3CCC2(C)C1C/C=C1/C(=O)OCC1O (stereo unspecified)
- GI50 [1]: 1.61 µM
- TGI [1]: 3.04 µM
- GI50 [2]: 2.24 µM
- TGI [2]: 6.68 µM
- GI50 [3]: 5.66 µM
- TGI [3]: 18.5 µM
- GI50 [4]: 2.54 µM
- TGI [4]: 6.88 µM
- GI50 [5]: 2.19 µM
- TGI [5]: 4.9 µM
- GI50 [6]: 1.8 µM
- TGI [6]: 3.63 µM
- GI50 [7]: 3.13 µM
- TGI [7]: 12 µM
- GI50 [8]: 6.18 µM
- TGI [8]: 19.4 µM
- GI50 [9]: 3.38 µM
- TGI [9]: 11.3 µM
- GI50 [10]: 1.8 µM
- TGI [10]: 3.28 µM
- GI50 [11]: 1.65 µM
- TGI [11]: 3.23 µM
- GI50 [12]: 1.59 µM
- TGI [12]: 2.93 µM
- GI50 [13]: 2.94 µM
- TGI [13]: 9.34 µM
- GI50 [14]: 1.81 µM
- TGI [14]: 3.3 µM
- GI50 [15]: 19.8 µM
- TGI [15]: 34.5 µM
- GI50 [16]: 3.75 µM
- TGI [16]: 16.4 µM
- GI50 [17]: 11.3 µM
- TGI [17]: 24 µM
- GI50 [18]: 2.28 µM
- TGI [18]: 8.77 µM
- GI50 [19]: 2.29 µM
- TGI [19]: 5.45 µM
- GI50 [20]: 4.26 µM
- TGI [20]: 15.8 µM
- GI50 [21]: 4.56 µM
- TGI [21]: 16.5 µM
- GI50 [22]: 2.37 µM
- TGI [22]: 5.77 µM
- GI50 [23]: 2.43 µM
- TGI [23]: 5.27 µM
- GI50 [24]: 3.37 µM
- TGI [24]: 11.1 µM
- GI50 [25]: 13 µM
- TGI [25]: 26.1 µM
- GI50 [26]: 2.06 µM
- TGI [26]: 4.26 µM
- GI50 [27]: 2.88 µM
- TGI [27]: 8.52 µM
- GI50 [28]: 3.06 µM
- TGI [28]: 11.8 µM
- GI50 [29]: 3.7 µM
- TGI [29]: 12.5 µM
- GI50 [30]: 4.16 µM
- TGI [30]: 14.9 µM
- GI50 [31]: 1.89 µM
- TGI [31]: 4.17 µM
- GI50 [32]: 1.81 µM
- TGI [32]: 3.45 µM
- GI50 [33]: 1.73 µM
- TGI [33]: 3.99 µM
- GI50 [34]: 1.75 µM
- TGI [34]: 3.16 µM
- GI50 [35]: 3.61 µM
- TGI [35]: 13.4 µM
- GI50 [36]: 3.12 µM
- TGI [36]: 11.3 µM
- GI50 [37]: 2.58 µM
- TGI [37]: 7.77 µM
- GI50 [38]: 2.17 µM
- TGI [38]: 5.06 µM
- GI50 [39]: 1.95 µM
- TGI [39]: 5.48 µM
- GI50 [40]: 2.02 µM
- TGI [40]: 4.12 µM
- GI50 [41]: 1.81 µM
- TGI [41]: 4.2 µM
- GI50 [42]: 4.05 µM
- TGI [42]: 17.2 µM
- GI50 [43]: 17.8 µM
- TGI [43]: 32.4 µM
- GI50 [44]: 1.97 µM
- TGI [44]: 4.37 µM
- GI50 [45]: 1.78 µM
- TGI [45]: 3.42 µM
- GI50 [46]: 1.78 µM
- TGI [46]: 3.58 µM
- GI50 [47]: 4.4 µM
- TGI [47]: 17.2 µM
- GI50 [48]: 1.94 µM
- TGI [48]: 4.67 µM
- GI50 [49]: 3.55 µM
- TGI [49]: 12.8 µM
- GI50 [50]: 1.75 µM
- TGI [50]: 4.12 µM
- GI50 [51]: 3.34 µM
- TGI [51]: 12 µM
- GI50 [52]: 3.92 µM
- TGI [52]: 30.5 µM
- GI50 [53]: 3.25 µM
- TGI [53]: 17.6 µM
- GI50 [54]: 2.26 µM
- TGI [54]: 7.04 µM
- GI50 [55]: 4.53 µM
- TGI [55]: 16.4 µM
- GI50 [56]: 8.4 µM
- TGI [56]: 20.8 µM
- GI50 [57]: 3.46 µM
- TGI [57]: 11.4 µM
- GI50 [58]: 2 µM
- TGI [58]: 5.03 µM

From PubChem BioAssay (NCI)
